Molecular target: T1, GSNOR (GSNO Reductase) (Homo sapiens, UniProt P11766)
T1 construct: made in house; host or cells: E. coli (arabinose-induced)
Assay: GSNOR assay (inhibition of GSNOR activity, change in 340 nm absorbance)
Assay type: biochemical
Conditions: 100 mM NaPO4 pH 7.4, 0.240 mM GSNO, 0.300 mM NADH, 0.5 μg/mL GSNO Reductase, 1% DMSO, 25° C.; values given as 'about' bounds; read-out: IC50 (GSNOR inhibitor activity)
Experimental: Various compounds were tested in vitro for their ability to inhibit GSNOR activity. […] GSNOR expression and purification is described in Biochemistry 2000, 39, 10720-10729.
GSNOR fermentation: Pre-cultures were grown from stabs of a GSNOR glycerol stock in 2XYT media containing 100 ug/ml ampicillin after an overnight incubation at 37° C. Cells were then added to fresh 2XYT (4L) containing ampicillin and grown to an OD (A600) of 0.6-0.9 at 37° C. before induction. GSNOR expression was induced with 0.1% arabinose in an overnight incubation at 20° C.
GSNOR Purification: E. coli cell paste was lysed by nitrogen cavitation and the clarified lysate purified by Ni affinity chromatography on an AKTA FPLC (Amersham Pharmacia). The column was eluted in 20 mM Tris pH 8.0/250 mM NaCl with a 0-500 mM imidazole gradient. […] GSNOR was recovered in the flowthrough fraction and for crystallography is further purified by Q-Sepharose and Heparin flowthrough chromatography in 20 mM Tris pH 8.0, 1 mM DTT, 10 uM ZnSO4.
GSNOR assay: GSNO and Enzyme/NADH Solutions are made up fresh each day. The Solutions are filtered and allowed to warm to room temperature. GSNO Solution: 100 mM NaPO4 (pH 7.4), 0.480 mM GSNO. 396 μL of GSNO Solution is added to a cuvette followed by 8 μL of test compound in DMSO (or DMSO only for full reaction control) and mixed with the pipette tip. Compounds to be tested are made up at a stock concentration of 10 mM in 100% DMSO. 2 fold serial dilutions are done in 100% DMSO. 8 μL of each dilution are added to an assay so that the final concentration of DMSO in the assay is 1%. The concentrations of compounds tested range from 100 to 0.003 μM. Enzyme/NADH Solution: 100 mM NaPO4 (pH 7.4), 0.600 mM NADH, 1.0 μg/mL GSNO Reductase. 396 μL of the Enzyme/NADH Solution is added to the cuvette to start the reaction. The cuvette is placed in the Cary 3E UV/Visible Spectrophotometer and the change in 340 nm absorbance/min at 25° C. is recorded for 3 minutes. The assays are done in triplicate for each compound concentration. IC50's for each compound are calculated using the standard curve analysis in the Enzyme Kinetics Module of SigmaPlot.
Final assay conditions: 100 mM NaPO4, pH 7.4, 0.240 mM GSNO, 0.300 mM NADH, 0.5 μg/mL GSNO Reductase and 1% DMSO. Final volume: 800 μL/cuvette.

T1 sequence (P11766 whole entry): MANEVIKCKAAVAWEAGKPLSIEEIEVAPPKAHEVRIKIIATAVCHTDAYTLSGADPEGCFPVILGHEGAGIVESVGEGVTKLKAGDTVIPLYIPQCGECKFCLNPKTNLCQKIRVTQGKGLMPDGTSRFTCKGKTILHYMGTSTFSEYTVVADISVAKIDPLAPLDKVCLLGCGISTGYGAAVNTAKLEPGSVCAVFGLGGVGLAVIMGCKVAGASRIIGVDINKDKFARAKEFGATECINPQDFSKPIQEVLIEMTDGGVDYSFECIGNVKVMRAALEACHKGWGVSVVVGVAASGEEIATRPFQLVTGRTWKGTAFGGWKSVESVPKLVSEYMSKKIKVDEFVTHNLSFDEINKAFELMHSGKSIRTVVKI

Structure (SMILES): COc1ccc(-c2ccn(-c3ccc(C(=O)O)c(F)c3)c2-c2ccc(C(N)=O)cc2C)cc1 [Example 16, 4-(2-(4-carbamoyl-2-methylphenyl)-3-(4-methoxyphenyl)-1H-pyrrol-1-yl)-2-fluorobenzoic acid]
- IC50: < 5000 nM

Structure (SMILES): COc1ccc(-c2ccn(-c3ccc(O)cn3)c2-c2ccc(C(N)=O)cc2C)cc1 [Example 26, 4-(1-(5-hydroxypyridin-2-yl)-3-(4-methoxyphenyl)-1H-pyrrol-2-yl)-3-methylbenzamide]
- IC50: < 5000 nM

Structure (SMILES): Cc1cc(C(N)=O)ccc1-c1c(CCC(=O)O)ccn1-c1ccc(-n2ccnc2)cc1 [Example 13, 3-(1-(4-(1H-imidazol-1-yl)phenyl)-2-(4-carbamoyl-2-methylphenyl)-1H-pyrrol-3-yl)propanoic acid]
- IC50: < 1000 nM

Structure (SMILES): COc1ccc(-c2ccn(CCC(=O)O)c2-c2ccc(C(N)=O)cc2C)cc1 [Example 1, 3-(2-(4-carbamoyl-2-methylphenyl)-3-(4-methoxyphenyl)-1H-pyrrol-1-yl)propanoic acid]
- IC50: < 1000 nM

Structure (SMILES): COc1ccc(-c2ccn(-c3ccc(O)c(F)c3)c2-c2ccc(C(N)=O)cc2C)cc1 [Example 23, 4-(1-(3-fluoro-4-hydroxyphenyl)-3-(4-methoxyphenyl)-1H-pyrrol-2-yl)-3-methylbenzamide]
- IC50: < 1000 nM

Structure (SMILES): COc1ccc(-c2ccn(CC(F)(F)C(=O)O)c2-c2ccc(C(N)=O)cc2C)cc1 [Example 9, 3-(2-(4-carbamoyl-2-methylphenyl)-3-(4-methoxyphenyl)-1H-pyrrol-1-yl)-2,2-difluoropropanoic acid]
- IC50: < 5000 nM

Structure (SMILES): COc1ccc(-c2ccn(-c3ccc(O)c(C(=O)O)c3)c2-c2ccc(C(N)=O)cc2C)cc1 [Example 27, 5-(2-(4-carbamoyl-2-methylphenyl)-3-(4-methoxyphenyl)-1H-pyrrol-1-yl)-2-hydroxybenzoic acid]
- IC50: < 1000 nM

Structure (SMILES): COc1ccc(-c2ccn(-c3ccc(O)c([N+](=O)[O-])c3)c2-c2ccc(C(N)=O)cc2C)cc1 [Example 17, 4-(1-(4-hydroxy-3-nitrophenyl)-3-(4-methoxyphenyl)-1H-pyrrol-2-yl)-3-methylbenzamide]
- IC50: < 1000 nM

Structure (SMILES): Cc1cc(C(N)=O)ccc1-c1c(-c2ccc(-n3ccnc3C)cc2)ccn1-c1cc(F)c(O)c(F)c1 [Example 30, 4-(1-(3,5-difluoro-4-hydroxyphenyl)-3-(4-(2-methyl-1H-imidazol-1-yl)phenyl)-1H-pyrrol-2-yl)-3-methylbenzamide]
- IC50: < 1000 nM

Structure (SMILES): Cc1cc(C(N)=O)ccc1-c1c(-c2ccc(-n3ccnc3C)cc2)ccn1-c1ccc(O)c(F)c1 [Example 29, 4-(1-(3-fluoro-4-hydroxyphenyl)-3-(4-(2-methyl-1H-imidazol-1-yl)phenyl)-1H-pyrrol-2-yl)-3-methylbenzamide]
- IC50: < 1000 nM

Structure (SMILES): COc1ccc(-c2ccn(CC(C)C(=O)O)c2-c2ccc(C(N)=O)cc2C)cc1 (stereo not drawn) [Example 3, 3-(2-(4-carbamoyl-2-methylphenyl)-3-(4-methoxyphenyl)-1H-pyrrol-1-yl)-2-methylpropanoic acid]
- IC50: < 5000 nM

Structure (SMILES): COc1ccc(-c2ccn(-c3ccc(C(=O)O)c(O)c3)c2-c2ccc(C(N)=O)cc2C)cc1 [Example 15, 4-(2-(4-carbamoyl-2-methylphenyl)-3-(4-methoxyphenyl)-1H-pyrrol-1-yl)-2-hydroxybenzoic acid]
- IC50: < 1000 nM

Structure (SMILES): COc1ccc(-c2ccn(-c3ccc(C(=O)O)c(Cl)c3)c2-c2ccc(C(N)=O)cc2C)cc1 [Example 20, 4-(2-(4-carbamoyl-2-methylphenyl)-3-(4-methoxyphenyl)-1H-pyrrol-1-yl)-2-chlorobenzoic acid]
- IC50: < 5000 nM

Structure (SMILES): COc1ccc(-n2ccc(CCC(=O)O)c2-c2ccc(C(N)=O)cc2C)cc1 [Example 6, 3-(2-(4-carbamoyl-2-methylphenyl)-1-(4-methoxyphenyl)-1H-pyrrol-3-yl)propanoic acid]
- IC50: < 1000 nM

Structure (SMILES): Cc1cc(C(N)=O)ccc1-c1c(-c2ccc(-n3ccnc3)cc2)ccn1CCC(=O)O [Example 5, 3-(3-(4-(1H-imidazol-1-yl)phenyl)-2-(4-carbamoyl-2-methylphenyl)-1H-pyrrol-1-yl)propanoic acid]
- IC50: < 1000 nM

Structure (SMILES): COc1ccc(-c2ccn(-c3ccc(C(=O)O)cc3)c2-c2ccc(C(N)=O)cc2C)cc1 [Example 19, 4-(2-(4-carbamoyl-2-methylphenyl)-3-(4-methoxyphenyl)-1H-pyrrol-1-yl)benzoic acid]
- IC50: < 1000 nM

Structure (SMILES): COc1cc(Cl)ccc1-n1ccc(CCC(=O)O)c1-c1ccc(C(N)=O)cc1C [Example 14, 3-(2-(4-carbamoyl-2-methylphenyl)-1-(4-chloro-2-methoxyphenyl)-1H-pyrrol-3-yl)propanoic acid]
- IC50: < 1000 nM

Structure (SMILES): COc1ccc(-c2ccn(-c3cc(F)c(O)c(F)c3)c2-c2ccc(C(N)=O)cc2C)cc1 [Example 25, 4-(1-(3,5-difluoro-4-hydroxyphenyl)-3-(4-methoxyphenyl)-1H-pyrrol-2-yl)-3-methylbenzamide]
- IC50: < 1000 nM

Source: patent US8642628B2, “Pyrrole inhibitors of S-nitrosoglutathione reductase” (N30 Pharmaceuticals, Inc., priority 2008, dated 2014)
